The text below walks through data of publication PMC7382241, “Genomic discovery of an evolutionarily programmed modality for small-molecule targeting of an intractable protein surface” (Proceedings of the National Academy of Sciences of the …, 2020).

This experiment concerns the target T1, FKBP12 (Homo sapiens, UniProt P62942).
T1 construct: gene FKBP1A; AVI-tagged FKBP12, E. coli BL21(DE3)pLysS, immobilized on NTA sensor chip
It is filed as binding. Conditions: 25 °C; binary complex.

T1 sequence (P62942 2-108): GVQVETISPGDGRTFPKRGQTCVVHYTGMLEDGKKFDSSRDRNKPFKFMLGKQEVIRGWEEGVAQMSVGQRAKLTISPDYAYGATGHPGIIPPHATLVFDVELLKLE

Take `C=CC[C@@H]1/C=C(\C)C[C@H](C)C[C@H](OC)[C@H]2O[C@@](O)(C(=O)C(=O)N3CCCC[C@H]3C(=O)O[C@H](/C(C)=C/[C@@H]3CC[C@@H](O)[C@H](OC)C3)[C@H](C)[C@@H](O)CC1=O)[C@H](C)C[C@@H]2OC` [FK506]: the KD result was “KD measurements by SPR for WDB001, WDB002, WDB003, WDB011, rapamycin, and FK506”.
